One substance from patent publication US7223718B2, “Enhanced glyphosate herbicidal concentrates” (Falcon Lab LLC, priority 2005, dated 2007) can be followed below.

This data set is described as follows: Hygroscopicity: exposure to air on a balance for three days. The class given is physicochemical. The note with it: exposed to air on a balance. The source says:
A mechanical mixture of 10 gm. of dry, solid isopropylammonium glyphosate and 20 gm. of dry, solid ammonium pelargonate was made by thoroughly grinding and mixing the two solids to assure a homogeneous powder. The resulting 30 gm. was exposed to the air in a weighing dish on a balance to determine if the mixture was hygroscopic or dry. […] To this mixture was further added 3 gm. of powdered 85% potassium hydroxide and the solids again thoroughly mixed. This solid mixture contained the equivalent of 30% isopropylammonium glyphosate and 60% ammonium pelargonate, being a solid enhanced glyphosate herbicide concentrate.
A 50 gm. portion of a 53.8% glyphosate solution as the isopropylammonium salt (Monsanto Aquamaster®) was placed in a glass shallow evaporating dish. To this was added 10 gm. of 28-30% ammonium hydroxide and the solution thoroughly mixed by slowly tilting the dish. The dish was then exposed to air at ambient conditions for 2 weeks during which time the water evaporated off leaving a white crystalline solid weighing 38.9 gm. […] By the method it was prepared and the yield obtained it was determined to be the mixed salt ammonium, (isopropylammonium)glyphosate. The melting point was 200-205° C. (isopropyl ammonium glyphosate melts at 155-158° C.) The FT-IR spectrum in KBr is: […]

On to ammonium, (isopropylammonium)glyphosate, for which the “Hygroscopicity (weight change on exposure to air)” value is reported as “non-hygroscopic”.
